Patent publication US12686668B2, “Leukotriene synthesis inhibitors” (Naegis Pharmaceuticals Inc., priority 2019, dated 2026)

Legend:
[1] = system: LTB4 production in MC/9 cells; experiment: MC/9 HPLC assay, inhibition of LTB4 production; assay type: cell-based; conditions: Mus musculus, MC9, Table 2 column 4, no concentration in head (1 μM according to b732), read-out: % Inhibition LTB4
Description: (§1) Cultured MC/9 cells (3×10^6 cells) in 1 mL HBSS were pre-incubated with a series of concentrations of compound solubilized in DMSO for 30 minutes. Production of leukotrienes were stimulated with the addition of 1 μM calcium ionophore (A23187), diluted from a 4 mM DMSO stock in HBSS, and incubated at room temperature for 20 minutes. The reaction was stopped with the addition of 500 μL of methanol containing 20 ng/mL prostaglandin B2 as an internal standard. Samples were collected and stored at −20° C. at least 2 hr or overnight before centrifuged at 13,000 rpm for 15 minutes and loaded onto C18 SEP-PAK columns (Canadian Lifesciences IS12000) for solid phase extraction. The leukotrienes were analyzed by HPLC using an ACE C18 column (4.5 mm×150 mm, 5 m) eluted with acetonitrile/methanol/water mixture with H3PO4, pH 3.5 (37:26:37) with a flow rate of 1.8 mL/min. The amount of LTB4 (Cayman Chemical, 20110) and LTC4 (Cayman Chemical, 20210) were calculated based on reference standards and the level of inhibition of LTB4 production induced by the test compounds was calculated relative to control samples. The results are provided in Table 2, where Compound No. refers to the compounds identified in Table 1.

[2] = system: LTC4 production in MC/9 cells; experiment: MC/9 HPLC assay, inhibition of LTC4 production; assay type: cell-based; conditions: Mus musculus; for inhibition at 3 µM: MC9, 3 μM, A23187 stimulated; for inhibition at 1 µM: MC9, Table 2 column 3, no concentration in head (1 μM according to b732), read-out: % Inhibition LTC4
Description: as §1

[3] = target: T1, recombinant human leukotriene A4 hydrolase enzyme (Homo sapiens, UniProt P09960); experiment: Amino-peptidase assay, alanine-4-nitroanalide; assay type: biochemical; conditions: negative values = augmented peptidase activity, read-out: % Inhibition aminopeptidase-Alanine-4-nitroanalide activity of LTA4H (3 μM)
T1 construct: purchased Cayman Chemical 10007817
T1 sequence (P09960 1-611): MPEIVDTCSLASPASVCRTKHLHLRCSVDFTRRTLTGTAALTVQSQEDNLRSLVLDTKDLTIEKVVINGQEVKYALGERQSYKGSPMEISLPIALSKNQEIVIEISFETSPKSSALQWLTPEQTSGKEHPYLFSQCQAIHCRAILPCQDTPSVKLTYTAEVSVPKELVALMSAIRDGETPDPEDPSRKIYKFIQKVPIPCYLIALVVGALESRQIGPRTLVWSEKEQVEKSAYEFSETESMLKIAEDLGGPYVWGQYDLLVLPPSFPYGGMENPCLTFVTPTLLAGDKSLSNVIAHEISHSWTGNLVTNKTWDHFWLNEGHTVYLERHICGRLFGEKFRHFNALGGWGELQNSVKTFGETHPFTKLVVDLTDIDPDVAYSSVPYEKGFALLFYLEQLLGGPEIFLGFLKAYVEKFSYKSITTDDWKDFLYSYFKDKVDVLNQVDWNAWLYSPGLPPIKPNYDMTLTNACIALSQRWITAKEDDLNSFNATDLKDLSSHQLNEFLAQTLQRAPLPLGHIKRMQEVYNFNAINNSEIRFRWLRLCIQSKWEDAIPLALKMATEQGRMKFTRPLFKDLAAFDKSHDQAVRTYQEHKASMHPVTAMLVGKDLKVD
Description: A series of compound concentrations were pre-incubated in the absence of light with 0.5 μg of recombinant human leukotriene A4 hydrolase enzyme (Cayman Chemical 10007817) in 50 μL assay buffer (50 mM Tris-HCl, 100 mM KCl). The reaction was stimulated by adding 50 μL 6 mM alanine-4-nitroanilide (Sigma Aldrich A9325) in assay buffer. The amount of amino-peptidase activity was measured by determining the change in absorbance at 405 nm due to 4-nitroanaline production and comparing the rate of change to a reference standard (Sigma Aldrich 185310). Amino-peptidase activity was compared to control samples and the level of inhibition was calculated. Compounds that augment peptidase activity are represented by negative values.

[4] = system: LTB4 production in porcine or human whole blood; experiment: Whole blood HPLC assay, inhibition of LTB4 production; assay type: cell-based; conditions: 5 point curve, porcine or human whole blood (not specified)
Description: Porcine or human whole blood (1 mL) was pre-incubated with a series of concentrations of compound solubilized in DMSO for 30 minutes. Production of leukotrienes were stimulated with the addition of 20 μM calcium ionophore (A23187), diluted from a 4 mM DMSO stock in HBSS, and incubated at room temperature for 20 minutes. In porcine blood 20 μM arachidonic acid was added in addition to the calcium ionophore. The blood was centrifuged at 2,000 rpm for 15 minutes, and the plasma fraction removed for further processing. Plasma samples were diluted with 500 μL acidified water (HCl pH 3.0) and loaded onto C18 SEP-PAK columns (Canadian Lifesciences IS12000) for solid phase extraction. The leukotrienes were analyzed by HPLC using an ACE C18 column (4.5 mm×150 mm, 5 m) eluted with acetonitrile/methanol/water mixture with H3PO4, pH 3.5 (37:26:37) with a flow rate of 1.8 mL/min. The amount of LTB4 (Cayman Chemical, 20110) was calculated based on reference standards and the level of inhibition of LTB4 production induced by the test compounds was calculated relative to control samples. The results provided in Table 3 are IC50 values calculated based on a 5 point curve, where Compound No. refers to the compounds identified in Table 1.

Compound	inhibition at 1 µM [1]	inhibition at 3 µM [2]	inhibition at 1 µM [2]	inhibition at 3 µM [3]	IC50 [4]
COc1cc(CCC(C)(O)c2ccccc2)ccc1Oc1nc2ccccc2o1 (stereo not drawn) [Compound 128, 4-[4-(1,3-benzoxazol-2-yloxy)-3-methoxyphenyl]-2-phenylbutan-2-ol]	< 10%	< 10%	< 10%	< 25%	–
CC(O)(c1ccc(Oc2nc3ccccc3s2)cc1)C(F)(F)F (stereo not drawn) [Compound 163, 2-[4-(1,3-benzothiazol-2-yloxy)phenyl]-1,1,1-trifluoropropan-2-ol]	–	10 to 30%	–	–	> 10 µM
CC(O)(c1ccc(OCc2ccc3ccccc3n2)cc1)C(F)(F)F (stereo not drawn) [Compound 197, 1,1,1-trifluoro-2-[4-(quinolin-2-ylmethoxy)phenyl]propan-2-ol]	–	> 90%	–	–	0.1 to 1 µM
COc1cc(Oc2nc3ccccc3s2)ccc1C(O)C(F)(F)F (stereo not drawn) [Compound 182, 1-{4-[(1,3-benzothiazol-2-yl}oxy]-2-methoxyphenyl}-2,2,2-trifluoroethan-1-ol]	–	10 to 30%	–	< 25%	–
CCC(O)(CCc1ccc(Oc2nc3ccccc3s2)c(C(F)(F)F)c1)C(F)(F)F (stereo not drawn) [Compound 155, 1-[4-(1,3-benzothiazol-2-yloxy)-3-(trifluoromethyl)-phenyl]-3-(trifluoromethyl)-pentan-3-ol]	10 to 30%	–	< 10%	–	> 10 µM
CCC(O)(CCc1ccc(Oc2nc3ccc(OC)cc3s2)c(OC)c1)C(F)(F)F (stereo not drawn) [Compound 109, 1-{4-[(6-methoxy-1,3-benzothiazol-2-yl)oxy]-3-methoxyphenyl}-3-(trifluoromethyl)pentan-3-ol]	70 to 90%	–	50 to 70%	0 to 50%	–
CCC(O)(CCc1ccc(Oc2nc3ccccc3s2)c(OC(C)C)c1)C(F)(F)F (stereo not drawn) [Compound 115, 1-[4-(1,3-benzothiazol-2-yloxy)-3-(iso-propyloxy)phenyl]-3-(trifluoromethyl)pentan-3-ol]	< 10%	< 10%	< 10%	–	> 10 µM
CCC(O)(CCc1ccc(Oc2nc3ccccc3n2C)c(OC)c1)C(F)(F)F (stereo not drawn) [Compound 105, 1-[4-(1-methyl-1H-benzimidazol-2-yloxy)-3-methoxyphenyl]-3-(trifluoromethyl)pentan-3-ol]	–	70 to 90%	30 to 50%	75%	–
COc1cc(C(C)(O)C(F)(F)F)ccc1OCc1ccc2ccccc2n1 (stereo not drawn) [Compound 199, 1,1,1-trifluoro-2-[3-methoxy-4-(quinolin-2-ylmethoxy)phenyl]propan-2-ol]	–	30 to 50%	–	–	> 10 µM
CC(O)c1ccc(Oc2nc3c(F)cc(F)cc3s2)cc1 (stereo not drawn) [Compound 180, 1-{4-[(4,6-difluoro-1,3-benzothiazol-2-yl)oxy]phenyl}ethanol]	–	< 10%	–	50 to 75%	–
COc1cc(CCC(C)(O)c2ccccc2)ccc1Oc1nc2ccccc2s1 (stereo not drawn) [Compound 123, 4-[4-(1,3-benzothiazol-2-yloxy)-3-methoxyphenyl]-2-(phenyl)butan-2-ol]	50 to 70%	–	10 to 30%	25 to 50%	–
CC(CCc1ccc(Oc2nc3ccccc3s2)cc1)N1CCCC1 (stereo not drawn) [Compound 156, 2-{4-[3-(pyrrolidin-1-yl)butyl]phenoxy}-1,3-benzothiazole]	> 90%	–	< 10%	–	0.1 to 1 µM
CCOc1cc(CCC(O)(CC)C(F)(F)F)ccc1Oc1nc2ccccc2s1 (stereo not drawn) [Compound 121, 1-[4-(1,3-benzothiazol-2-yloxy)-3-ethoxyphenyl]-3-(trifluoromethyl)pentan-3-ol]	50 to 70%	–	50 to 70%	0 to 50%	–
O=C(O)C1CCCN1Cc1ccc(Oc2nc3ccccc3s2)cc1 (stereo not drawn) [Compound 165, 1-[4-(1,3-benzothiazol-2-yloxy)benzyl]pyrrolidine-2-carboxylic acid]	–	< 10%	–	50 to 75%	–
CCC(=O)CCc1ccc(Oc2nc3ccccc3o2)c(OC)c1 [Compound 102, 1-[4-(1,3-benzoxazol-2-yloxy)-3-methoxyphenyl]pentan-3-one]	> 90%	–	10 to 30%	0 to 50%	–
COc1cc(C(C)(O)C(F)(F)F)ccc1Oc1nc2ccccc2s1 (stereo not drawn) [Compound 173, 2-[4-(1,3-benzothiazol-2-yloxy)-3-methoxyphenyl]-1,1,1-trifluoropropan-2-ol]	–	30 to 50%	–	0 to 50%	–
COc1cc(C(O)C(F)(F)F)ccc1Oc1nc2c(SC)cccc2s1 (stereo not drawn) [Compound 139, 2,2,2-trifluoro-1-(3-methoxy-4-{[4-(methylsulfanyl)-1,3-benzothiazol-2-yl]oxy}phenyl)ethanol]	–	> 90%	–	–	1 to 10 µM
CCC(O)(CCc1ccc(OCc2ccc3ccccc3n2)cc1)C(F)(F)F (stereo not drawn) [Compound 185, 1-[4-(quinolin-2-ylmethoxy)-phenyl]-3-(trifluoromethyl)-pentan-3-ol]	–	70 to 90%	–	–	0.1 to 1 µM
CCC(O)(CCc1ccc(Oc2nc3ccccc3s2)c(F)c1)C(F)(F)F (stereo not drawn) [Compound 154, 1-[4-(1,3-benzothiazol-2-yloxy)-3-fluorophenyl]-3-(trifluoromethyl)pentan-3-ol]	50 to 70%	< 10%	30 to 50%	> 75%	–
CC(O)c1ccc(Oc2nc3ccccc3s2)cc1 (stereo not drawn) [Compound 160, 1-[4-(1,3-benzothiazol-2-yloxy)phenyl]ethanol]	–	< 10%	–	–	> 10 µM
CCC(O)(CCc1ccc(OCc2ccc3ccccc3n2)c(OC)c1)C(F)(F)F (stereo not drawn) [Compound 198]	–	30 to 50%	–	–	0.1 to 1 µM
CCC(=O)CCc1ccc(Oc2nc3ccccc3s2)cc1 [Compound 148, 1-[4-(1,3-benzothiazol-2-yloxy)phenyl]pentan-3-one]	–	–	–	< 25%	–
CC(C)(O)c1ccc(Oc2nc3ccccc3s2)cc1 [Compound 177, 2-[4-(1,3-benzothiazol-2-yloxy)phenyl]propan-2-ol]	–	–	–	> 75%	–
CSc1cccc2sc(Oc3ccc(C(C)O)cc3)nc12 (stereo not drawn) [Compound 176, 1-(4-{[4-(methylsulfanyl)-1,3-benzothiazol-2-yl]oxy}phenyl)ethanol]	–	< 10%	–	< 25%	–
CC(O)(CCc1ccc(Oc2nc3ccccc3s2)c(Cl)c1)C(F)(F)F (stereo not drawn) [Compound 175, 4-[4-(1,3-benzothiazol-2-yloxy)-3-chlorophenyl]-1,1,1-trifluoro-2-methylbutan-2-ol]	–	–	–	50 to 75%	–
